± gives the standard deviation of the averaged measurements.
Columns and labels:
Assay in all cases: relative viability vs DMSO control (72 h) (fraction); higher = more viable cells
KHOS-240S = tested on: KHOS-240S
In short: (§1)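 After seeding at densities set for 80–90% confluence in 384-well plates, sarcoma cell lines waited 24 h before 2.5 µl of serially diluted compound was added. Source plates held 10 mM down to 0.0002 mM. Plates were incubated 72 h at 37 °C with 5% CO2, with 0.1% DMSO vehicle and a 5 µM positive control, and relative viability was taken from ATPLite as percent growth averaged over up to triplicate wells, with 1 set as full and 0 as none.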

SW982 = tested on: SW982
In short: as §1

HT1080 = tested on: HT1080
In short: as §1

SW1353 = tested on: SW1353
In short: as §1

RD-ES = tested on: RD-ES
In short: as §1

Cc1nc(Nc2ncc(C(=O)Nc3c(C)cccc3Cl)s2)cc(N2CCN(CCO)CC2)n1 [Dasatinib]
relative viability
Details | HT1080 | KHOS-240S | RD-ES | SW982 | SW1353
0.00017 µM | 1.03 ± 0.011 | 1.06 ± 0.053 | 0.989 ± 0.026 | 1.05 ± 0.044 | 0.979 ± 0.03
0.00051 µM | 1.05 ± 0.049 | 1.04 ± 0.04 | 0.966 ± 0.03 | 1.04 ± 0.049 | 0.982 ± 0.029
0.00152 µM | 1.04 ± 0.025 | 1.01 ± 0.047 | 0.966 ± 0.015 | 1.04 ± 0.04 | 0.996 ± 0.034
0.00457 µM | 1.01 ± 0.015 | 0.957 ± 0.068 | 0.962 ± 0.013 | 0.99 ± 0.042 | 0.956 ± 0.018
0.01372 µM | 1.02 ± 0.0092 | 0.816 ± 0.043 | 0.958 ± 0.023 | 0.854 ± 0.053 | 0.888 ± 0.027
0.04115 µM | 0.989 ± 0.027 | 0.708 ± 0.011 | 0.949 ± 0.019 | 0.641 ± 0.033 | 0.704 ± 0.04
0.1235 µM | 0.924 ± 0.026 | 0.494 ± 0.035 | 0.9274 ± 0.0062 | 0.389 ± 0.018 | 0.59 ± 0.034
0.3704 µM | 0.895 ± 0.029 | 0.337 ± 0.017 | 0.918 ± 0.031 | 0.277 ± 0.0084 | 0.46 ± 0.032
1.111 µM | 0.907 ± 0.018 | 0.279 ± 0.018 | 0.92 ± 0.049 | 0.259 ± 0.0061 | 0.4271 ± 0.0015
3.333 µM | 0.873 ± 0.017 | 0.25 ± 0.0028 | 0.759 ± 0.097 | 0.258 ± 0.0028 | 0.411 ± 0.016
10 µM | 0.535 ± 0.046 | 0.198 ± 0.01 | 0.483 ± 0.024 | 0.218 ± 0.0053 | 0.372 ± 0.0055

CO[C@@H]1[C@H](N(C)C(=O)c2ccccc2)C[C@H]2O[C@]1(C)n1c3ccccc3c3c4c(c5c6ccccc6n2c5c31)C(=O)NC4 [Midostaurin]
relative viability
Details | HT1080 | KHOS-240S | RD-ES | SW982 | SW1353
0.00017 µM | 1.01 ± 0.023 | 1.04 ± 0.06 | 0.971 ± 0.033 | 1 ± 0.064 | 0.918 ± 0.033
0.00051 µM | 0.999 ± 0.048 | 1.04 ± 0.068 | 0.991 ± 0.034 | 0.978 ± 0.042 | 0.927 ± 0.049
0.00152 µM | 1.007 ± 0.0057 | 1.03 ± 0.063 | 0.982 ± 0.017 | 0.979 ± 0.013 | 0.9048 ± 0.00026
0.00457 µM | 0.986 ± 0.041 | 1.04 ± 0.052 | 0.938 ± 0.015 | 0.931 ± 0.051 | 0.916 ± 0.014
0.01372 µM | 1.04 ± 0.057 | 1.02 ± 0.045 | 0.931 ± 0.025 | 0.93 ± 0.02 | 0.883 ± 0.037
0.04115 µM | 0.987 ± 0.044 | 0.937 ± 0.071 | 0.923 ± 0.015 | 0.939 ± 0.058 | 0.879 ± 0.034
0.1235 µM | 0.9478 ± 0.0065 | 0.797 ± 0.075 | 0.883 ± 0.026 | 0.821 ± 0.085 | 0.712 ± 0.043
0.3704 µM | 0.716 ± 0.049 | 0.536 ± 0.033 | 0.825 ± 0.043 | 0.375 ± 0.015 | 0.411 ± 0.013
1.111 µM | 0.406 ± 0.022 | 0.256 ± 0.015 | 0.166 ± 0.014 | 0.19 ± 0.013 | 0.272 ± 0.012
3.333 µM | 0.31 ± 0.015 | 0.143 ± 0.0039 | 0.0737 ± 0.0029 | 0.124 ± 0.0026 | 0.229 ± 0.0077
10 µM | 0.288 ± 0.0062 | 0.09613 ± 0.00046 | 0.0525 ± 0.0028 | 0.122 ± 0.0093 | 0.218 ± 0.0078

C=CC(=O)Nc1cc(Nc2nccc(-c3cn(C)c4ccccc34)n2)c(OC)cc1N(C)CCN(C)C [Osimertinib]
relative viability
Details | HT1080 | KHOS-240S | RD-ES | SW982 | SW1353
0.00017 µM | 1.08 ± 0.043 | 1.05 ± 0.031 | 0.962 ± 0.026 | 1.02 ± 0.032 | 1.014 ± 0.005
0.00051 µM | 1.09 ± 0.012 | 1.06 ± 0.042 | 0.978 ± 0.015 | 1.05 ± 0.017 | 1.007 ± 0.0033
0.00152 µM | 1.06 ± 0.043 | 1.06 ± 0.041 | 0.977 ± 0.029 | 1.01 ± 0.015 | 1.002 ± 0.01
0.00457 µM | 1.06 ± 0.013 | 1.08 ± 0.052 | 0.971 ± 0.03 | 1.03 ± 0.012 | 1 ± 0.019
0.01372 µM | 1.04 ± 0.029 | 1.04 ± 0.042 | 0.979 ± 0.02 | 1.04 ± 0.017 | 0.97 ± 0.022
0.04115 µM | 1.06 ± 0.028 | 1.05 ± 0.034 | 0.964 ± 0.043 | 1.03 ± 0.018 | 0.96 ± 0.061
0.1235 µM | 1.07 ± 0.041 | 1.05 ± 0.043 | 0.947 ± 0.041 | 0.996 ± 0.028 | 0.9 ± 0.044
0.3704 µM | 1.03 ± 0.011 | 1.03 ± 0.042 | 0.892 ± 0.027 | 0.983 ± 0.067 | 0.82 ± 0.061
1.111 µM | 0.992 ± 0.023 | 0.926 ± 0.087 | 0.775 ± 0.018 | 0.881 ± 0.088 | 0.8 ± 0.018
3.333 µM | 0.935 ± 0.024 | 0.767 ± 0.032 | 0.598 ± 0.024 | 0.678 ± 0.14 | 0.742 ± 0.055
10 µM | 0.0308 ± 0.0047 | 0.167 ± 0.019 | 0.0212 ± 0.0017 | 0.017 ± 0.0011 | 0.0174 ± 0.011

Cc1cc(Nc2ncc(Cl)c(Nc3ccccc3S(=O)(=O)C(C)C)n2)c(OC(C)C)cc1C1CCNCC1 [Ceritinib]
relative viability
Details | HT1080 | KHOS-240S | RD-ES | SW982 | SW1353
0.00017 µM | 1.02 ± 0.092 | 0.991 ± 0.052 | 0.94 ± 0.033 | 0.974 ± 0.022 | 0.94 ± 0.04
0.00051 µM | 1.01 ± 0.065 | 0.992 ± 0.039 | 0.938 ± 0.063 | 0.943 ± 0.064 | 0.939 ± 0.037
0.00152 µM | 1.02 ± 0.026 | 1 ± 0.041 | 0.955 ± 0.053 | 0.946 ± 0.078 | 0.969 ± 0.032
0.00457 µM | 1.04 ± 0.035 | 1.01 ± 0.03 | 0.957 ± 0.026 | 0.92 ± 0.051 | 0.953 ± 0.025
0.01372 µM | 1.02 ± 0.019 | 1.01 ± 0.052 | 0.955 ± 0.057 | 0.959 ± 0.043 | 0.948 ± 0.029
0.04115 µM | 1.06 ± 0.017 | 1.02 ± 0.025 | 0.943 ± 0.054 | 0.9674 ± 0.0046 | 0.953 ± 0.035
0.1235 µM | 1.04 ± 0.046 | 0.9951 ± 0.0088 | 0.89 ± 0.032 | 0.902 ± 0.034 | 0.932 ± 0.015
0.3704 µM | 1.03 ± 0.048 | 0.897 ± 0.04 | 0.681 ± 0.044 | 0.765 ± 0.032 | 0.89 ± 0.036
1.111 µM | 0.983 ± 0.029 | 0.826 ± 0.0092 | 0.454 ± 0.022 | 0.64 ± 0.029 | 0.901 ± 0.086
3.333 µM | 0.777 ± 0.033 | 0.439 ± 0.023 | 0.304 ± 0.032 | 0.311 ± 0.021 | 0.137 ± 0.2
10 µM | -0.000267 ± 0.00081 | 0.0022 ± 0.00035 | 0.00243 ± 0.00094 | 0.00217 ± 0.00021 | 0.00227 ± 0.0014

COc1cc2nccc(Oc3ccc(NC(=O)C4(C(=O)Nc5ccc(F)cc5)CC4)cc3)c2cc1OC [Cabozantinib]
relative viability
Details | HT1080 | KHOS-240S | RD-ES | SW982 | SW1353
0.00017 µM | 1.06 ± 0.069 | 1.11 ± 0.081 | 0.916 ± 0.062 | 1.04 ± 0.032 | 1.05 ± 0.058
0.00051 µM | 1.06 ± 0.03 | 1.08 ± 0.028 | 0.92 ± 0.048 | 1.01 ± 0.043 | 1.02 ± 0.04
0.00152 µM | 1.07 ± 0.033 | 1.08 ± 0.062 | 0.953 ± 0.057 | 1.03 ± 0.025 | 1.04 ± 0.029
0.00457 µM | 1.07 ± 0.019 | 1.06 ± 0.041 | 0.95 ± 0.042 | 1.035 ± 0.0016 | 0.987 ± 0.067
0.01372 µM | 1.05 ± 0.051 | 1.06 ± 0.065 | 0.938 ± 0.039 | 1.036 ± 0.005 | 1.01 ± 0.014
0.04115 µM | 1.04 ± 0.024 | 1.07 ± 0.062 | 0.949 ± 0.015 | 1.07 ± 0.058 | 1.01 ± 0.025
0.1235 µM | 1.06 ± 0.019 | 1.02 ± 0.045 | 0.958 ± 0.018 | 1.05 ± 0.046 | 0.904 ± 0.022
0.3704 µM | 1.06 ± 0.032 | 1.04 ± 0.016 | 0.895 ± 0.095 | 1.03 ± 0.048 | 0.8127 ± 0.0054
1.111 µM | 1.07 ± 0.016 | 0.974 ± 0.06 | 0.857 ± 0.042 | 0.993 ± 0.027 | 0.783 ± 0.024
3.333 µM | 0.962 ± 0.014 | 0.6869 ± 0.0062 | 0.616 ± 0.04 | 0.598 ± 0.028 | 0.54 ± 0.014
10 µM | 0.482 ± 0.02 | 0.425 ± 0.045 | 0.252 ± 0.022 | 0.259 ± 0.064 | 0.317 ± 0.068
